Consider four compounds from patent publication US11266599B2, “Inhalable dry powder cytidine analogue composition and method of use as a treatment for cancer” (Lovelace Biomedical Research Institute, priority 2018, dated 2022).

A short description of series [1]: Pharmacokinetics study of systemic, inhaled aqueous and inhaled dry powder 5AZA, with and without THU. The class given is in vivo, Sprague Dawley rat. As to conditions: THU 80 mg/kg oral. As to the method:
The 5AZA aerosol was delivered into the lungs of rats using a nose only inhalation delivery system in which a 5AZA dry powder formulation and a 5AZA aqueous formulation aerosol is generated with a rotating brush generator or Pari nebulizer, respectively. […] At each time-point, systemic blood was collected into K3EDTA tubes for separation into plasma and lung, liver, and brain tissue was snap frozen in liquid nitrogen. Plasma and lung tissue samples were assayed via a liquid chromatography mass spectrometry assay and the average concentration versus time profile modeled with non-compartmental analysis.

Series [2] concerns xenografts of human LC-derived cell lines. The conditions noted are these: Rowett nude rat, systemic intraperitoneal injection, reference 29; cited from earlier work.
The test system of the next series is PD-L1. The conditions noted are these: LC cell lines, in vitro; cited from earlier work.
For series [3] the following is noted: rats, intravenous 200 mg/kg for a month; cited from earlier work.
The conditions of series [4]: room temperature; cited from earlier work.

Regarding `O=C1NC(O)CCN1[C@@H]1O[C@H](CO)[C@@H](O)[C@H]1O` (stereo partly drawn) [THU, tetrahydrouridine], in series [1], the “effect of addition of THU on PK profile of the dry powder formulation in brain” value is on record as “greatly improved” and the “effect of addition of THU on lung PK of 5AZA” value was “did not influence”.
On to `Nc1ncn([C@@H]2O[C@H](CO)[C@@H](O)[C@H]2O)c(=O)n1` [5AZA, 4-amino-1-β-D-ribofuranosyl-1,3,5-triazin-2(1H)-one], for which the “reduction of tumor burden / suppression of tumor growth” value in series [2] is 31%. In addition, the “expression of PD-L1” value in the series with PD-L1 is “increased”.
Consider `C[S+](C)[O-]` [DMSO], for which, in series [3], the toxicity entry is recorded as “no toxicity”.
Regarding `Nc1ncn([C@H]2C[C@H](O)[C@@H](CO)O2)c(=O)n1` [DAC, 5-aza-2′-deoxyazacytidine], the “stability in aqueous solution” value in series [4] is “relatively unstable”.
